# From PMC12377202, “Design, synthesis, and cytotoxic evaluation of quinazoline-based derivatives as VEGER-2 inhibitors: comparative study against EGFR kinase activity, induction of apoptosis, and molecular docking study” (RSC Advances, 2025)
# Values joined by “and” are separate entries in the source; they are usually repeats but may differ in a detail not shown here. Equal values may be shown once.
# Legend:
# [1] = test system: IL-6R; test: IL-6R level in HepG-2 cells; assay type: cell-based, human
# Description: (§1) All synthesized compounds were tested at their cytotoxic concentrations in HepG-2 cells for analysis of gene expression levels of apoptotic markers caspase-3, caspase-9, TNF-α, and IL-6 proteins, and only two active compounds were tested for BAX and Bcl-2 proteins.
# (§2) through Flow cytometric analysis.
# (§3) Pellets were collected again and incubated with
# (§4) Total RNA from vehicle-treated
# (§5) (Thermo Scientific, USA).
# (§6) All experiments were performed in […]
# [2] = test system: TNF-alpha; test: TNF-alpha level in HepG-2 cells; assay type: cell-based, human; details: control 43.48
# Description: as §1, §2, §3, §4, §5, §6
# [3] = test system: MCF-7; test: MTT anti-proliferative assay, MCF-7; assay type: cell-based, human; details: Homo sapiens, MCF7
# [4] = test system: BAX/Bcl-2; test: BAX/Bcl-2 ratio in HepG-2 cells; assay type: cell-based, human; details: control 0.1260
# Description: as §1, §2, §3, §4, §5, §6
# [5] = test system: caspase-9; test: Caspase-9 expression level in HepG-2 cells; assay type: cell-based, human; details: for Caspase-9 ± SE: HepG-2, at IC50 concentrations, control 11.01
# Description: as §1, §2, §3, §4, §5, §6
# [6] = test system: BAX; test: BAX gene expression in HepG-2 cells; assay type: cell-based, human
# Description: as §1, §2, §3, §4, §5, §6
# [7] = target: VEGFR-2 (Homo sapiens, UniProt P35968); test: In vitro VEGFR-2 inhibitory assay (ELISA kit); details: VEGFR-2 kinase
# [8] = test system: HepG-2; test: MTT anti-proliferative assay, HepG-2; assay type: cell-based, human; details: Homo sapiens, HepG2
# [9] = test system: K-562; test: MTT anti-proliferative assay, K-562; assay type: cell-based, human; details: Homo sapiens, K562
# [10] = test system: HepG-2 cells; test: Cell cycle analysis (PI staining, flow cytometry); assay type: cell-based, human
# Description: In order to cause cytotoxicity, anticancer medicines must stop cell division at specific checkpoints, which are discrete stages of the cell cycle.
# Propidium iodide (PI) staining and flow cytometry analysis[74,75] were used to analyze the cell cycle for derivatives 8a and 9a, as illustrated in the SI.
# as §2, §3, §4, §5, §6
# [11] = test system: caspase-3; test: Caspase-3 expression level in HepG-2 cells; assay type: cell-based, human; details: for Caspase-3 ± SE: HepG-2, at IC50 concentrations, control 0.460
# Description: as §1, §2, §3, §4, §5, §6
# [12] = target: EGFR (Homo sapiens, UniProt P00533); test: EGFR kinase inhibition assay (ELISA kit)
# [13] = test system: Bcl-2; test: Bcl-2 gene expression in HepG-2 cells; assay type: cell-based, human
# Description: as §1, §2, §3, §4, §5, §6
# Chain of EGFR (P00533 25-1210): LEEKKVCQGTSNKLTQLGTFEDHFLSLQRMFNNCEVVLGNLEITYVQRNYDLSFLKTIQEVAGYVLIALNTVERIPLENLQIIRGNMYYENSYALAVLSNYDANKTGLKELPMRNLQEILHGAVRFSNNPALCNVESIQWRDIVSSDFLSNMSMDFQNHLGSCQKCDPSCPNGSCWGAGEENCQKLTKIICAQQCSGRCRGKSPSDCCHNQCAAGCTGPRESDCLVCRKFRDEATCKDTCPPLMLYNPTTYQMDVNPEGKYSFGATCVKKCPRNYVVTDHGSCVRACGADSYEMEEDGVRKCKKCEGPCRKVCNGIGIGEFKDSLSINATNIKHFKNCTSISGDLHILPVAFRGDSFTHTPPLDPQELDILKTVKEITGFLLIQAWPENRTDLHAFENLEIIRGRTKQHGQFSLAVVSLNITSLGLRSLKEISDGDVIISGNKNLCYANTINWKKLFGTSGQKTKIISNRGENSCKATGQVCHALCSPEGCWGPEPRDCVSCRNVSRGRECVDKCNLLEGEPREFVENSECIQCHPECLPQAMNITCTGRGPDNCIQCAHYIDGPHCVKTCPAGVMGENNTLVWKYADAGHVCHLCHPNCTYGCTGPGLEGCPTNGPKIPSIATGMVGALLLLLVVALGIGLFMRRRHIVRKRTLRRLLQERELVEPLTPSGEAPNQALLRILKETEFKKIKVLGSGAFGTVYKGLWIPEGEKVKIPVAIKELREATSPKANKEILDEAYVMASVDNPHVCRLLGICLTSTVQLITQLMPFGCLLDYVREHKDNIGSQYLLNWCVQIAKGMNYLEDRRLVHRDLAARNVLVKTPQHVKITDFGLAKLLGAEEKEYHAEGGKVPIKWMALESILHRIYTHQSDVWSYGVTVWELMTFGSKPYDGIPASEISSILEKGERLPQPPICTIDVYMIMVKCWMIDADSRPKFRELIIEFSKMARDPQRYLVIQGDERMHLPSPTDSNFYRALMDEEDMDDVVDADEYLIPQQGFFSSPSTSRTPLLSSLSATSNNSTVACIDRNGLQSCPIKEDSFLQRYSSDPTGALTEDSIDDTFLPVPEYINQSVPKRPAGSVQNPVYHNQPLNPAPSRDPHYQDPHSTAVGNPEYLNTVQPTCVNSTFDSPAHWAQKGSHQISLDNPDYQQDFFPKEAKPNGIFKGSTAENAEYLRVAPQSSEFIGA
# Chain of VEGFR-2 (P35968 20-1356): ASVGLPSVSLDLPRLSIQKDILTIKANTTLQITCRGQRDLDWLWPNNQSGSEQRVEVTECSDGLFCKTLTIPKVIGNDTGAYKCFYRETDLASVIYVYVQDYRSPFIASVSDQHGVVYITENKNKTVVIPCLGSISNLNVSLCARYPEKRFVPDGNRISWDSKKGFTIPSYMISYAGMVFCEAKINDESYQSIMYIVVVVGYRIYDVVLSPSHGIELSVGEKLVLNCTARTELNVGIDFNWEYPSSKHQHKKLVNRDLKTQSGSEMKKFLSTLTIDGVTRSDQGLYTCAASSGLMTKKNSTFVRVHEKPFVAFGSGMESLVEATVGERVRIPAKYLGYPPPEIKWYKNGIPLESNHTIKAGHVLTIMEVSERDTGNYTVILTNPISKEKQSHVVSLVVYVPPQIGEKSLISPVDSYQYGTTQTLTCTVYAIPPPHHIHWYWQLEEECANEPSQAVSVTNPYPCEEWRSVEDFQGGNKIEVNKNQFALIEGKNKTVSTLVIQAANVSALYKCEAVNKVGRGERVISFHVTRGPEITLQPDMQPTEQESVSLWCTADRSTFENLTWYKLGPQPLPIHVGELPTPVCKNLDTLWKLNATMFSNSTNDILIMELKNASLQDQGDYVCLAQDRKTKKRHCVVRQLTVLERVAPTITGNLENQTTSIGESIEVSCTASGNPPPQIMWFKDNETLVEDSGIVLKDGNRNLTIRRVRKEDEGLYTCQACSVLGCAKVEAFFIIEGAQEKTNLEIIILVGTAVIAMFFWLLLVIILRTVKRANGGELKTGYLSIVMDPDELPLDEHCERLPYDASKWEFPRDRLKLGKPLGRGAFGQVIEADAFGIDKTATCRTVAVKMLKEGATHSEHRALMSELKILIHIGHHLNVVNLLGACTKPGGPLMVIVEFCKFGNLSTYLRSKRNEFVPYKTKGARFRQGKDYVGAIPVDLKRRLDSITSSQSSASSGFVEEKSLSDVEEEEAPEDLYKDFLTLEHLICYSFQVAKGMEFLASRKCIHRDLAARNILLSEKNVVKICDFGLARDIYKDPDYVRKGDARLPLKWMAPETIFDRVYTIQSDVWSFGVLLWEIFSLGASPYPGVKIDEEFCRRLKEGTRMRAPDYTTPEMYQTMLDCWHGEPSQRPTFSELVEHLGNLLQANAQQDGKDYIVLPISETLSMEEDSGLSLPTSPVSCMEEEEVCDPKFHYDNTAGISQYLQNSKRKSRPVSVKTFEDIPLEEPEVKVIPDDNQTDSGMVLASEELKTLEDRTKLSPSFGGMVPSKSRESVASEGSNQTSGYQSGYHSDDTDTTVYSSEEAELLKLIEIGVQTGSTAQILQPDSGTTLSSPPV
structure (smiles),measurement,setting,value
"O=C(Cn1cnc2cc(Cl)ccc2c1=O)Nc1ccccc1 [8a, 2-(7-Chloro-4-oxoquinazolin-3(4H)-yl)-N-phenylacetamide]",IL-6R ± SE,"[1]; HepG-2, at IC50 concentrations, control 44.10",19.54 ± 1.62 ng/L
same,IL-6R protein level,"[1]; HepG-2, control 44.10%",19.54 ng/L
same,IL-6 ±SE,"[1]; raw data, HepG2, control 44.10",26.0 ng/L
same,TNF-alpha ±SE,"[2]; HepG-2, at IC50 concentrations",14.37 ± 0.45 ng/L
same,TNF-alpha ±SE,"[2]; raw data, HepG2",23.6 ng/L
same,viability at 0.195 µmol,"[3]; MCF-7, 0.195 umol",93.5%
same,cytotoxicity at 0.195 µmol,"[3]; MCF-7, 0.195 umol, read-out: Toxicity %",6.51%
same,viability at 0.391 µmol,"[3]; MCF-7, 0.391 umol",67%
same,cytotoxicity at 0.391 µmol,"[3]; MCF-7, 0.391 umol, read-out: Toxicity %",33%
same,viability at 0.781 µmol,"[3]; MCF-7, 0.781 umol",45.2%
same,cytotoxicity at 0.781 µmol,"[3]; MCF-7, 0.781 umol, read-out: Toxicity %",54.8%
same,viability at 1.563 µmol,"[3]; MCF-7, 1.563 umol",28.5%
same,cytotoxicity at 1.563 µmol,"[3]; MCF-7, 1.563 umol, read-out: Toxicity %",71.5%
same,viability at 3.125 µmol,"[3]; MCF-7, 3.125 umol",17.8%
same,cytotoxicity at 3.125 µmol,"[3]; MCF-7, 3.125 umol, read-out: Toxicity %",82.2%
same,viability at 6.25 µmol,"[3]; MCF-7, 6.25 umol",11.4%
same,cytotoxicity at 6.25 µmol,"[3]; MCF-7, 6.25 umol, read-out: Toxicity %",88.6%
same,viability at 12.5 µmol,"[3]; MCF-7, 12.5 umol",8.31%
same,cytotoxicity at 12.5 µmol,"[3]; MCF-7, 12.5 umol, read-out: Toxicity %",91.7%
same,viability at 25 µmol,"[3]; MCF-7, 25 umol",7.26%
same,cytotoxicity at 25 µmol,"[3]; MCF-7, 25 umol, read-out: Toxicity %",92.7%
same,IC50,"[3]; MTT, MCF-7, read-out: Cytotoxicity against cancer cells IC50 MCF-7",695.5 ± 5.1 nM
same,Gene expression (fold change) BAX/Bcl-2 ratio,[4],1.77 and 1.7777 ± 0.11
same,Caspase-9 ± SE,[5],74.01 ± 3.92 ng/L
same,Caspase-9 ± SE,[5]; listed as R2,74.01 ng/L
same,"caspase-9 expression level, fold increase","[5]; HepG-2, vs control cells",6.72 fold
same,fold increase in BAX expression level,"[6]; HepG-2, vs control",3.8 fold
same,BAX expression level,"[6]; HepG-2, control 0.44",1.67 fold change
same,Gene expression (fold change) BAX,"[6]; HepG-2, control 0.4448",1.6792 ± 0.74 fold change
same,Activity %,[7]; HepG2,25.136%
same,Inhibition %,[7]; HepG2,74.864%
same,Activity %,[7]; K-562,37.495%
same,Inhibition %,[7]; K-562,62.505%
same,Activity %,[7]; MCF7,32.377%
same,Inhibition %,[7]; MCF7,67.623%
same,viability at 0.195 µg/mL,"[8]; HepG-2, 0.195 ug/ml",45.9%
same,cytotoxicity at 0.195 µg/mL,"[8]; HepG-2, 0.195 ug/ml, read-out: Toxicity %",54.1%
same,viability at 0.391 µg/mL,"[8]; HepG-2, 0.391 ug/ml",26.4%
same,cytotoxicity at 0.391 µg/mL,"[8]; HepG-2, 0.391 ug/ml, read-out: Toxicity %",73.6%
same,viability at 0.781 µg/mL,"[8]; HepG-2, 0.781 ug/ml",16.7%
same,cytotoxicity at 0.781 µg/mL,"[8]; HepG-2, 0.781 ug/ml, read-out: Toxicity %",83.3%
same,viability at 1.563 µg/mL,"[8]; HepG-2, 1.563 ug/ml",11.8%
same,cytotoxicity at 1.563 µg/mL,"[8]; HepG-2, 1.563 ug/ml, read-out: Toxicity %",88.2%
same,viability at 3.125 µg/mL,"[8]; HepG-2, 3.125 ug/ml",8.68%
same,cytotoxicity at 3.125 µg/mL,"[8]; HepG-2, 3.125 ug/ml, read-out: Toxicity %",91.3%
same,viability at 6.25 µg/mL,"[8]; HepG-2, 6.25 ug/ml",7.88%
same,cytotoxicity at 6.25 µg/mL,"[8]; HepG-2, 6.25 ug/ml, read-out: Toxicity %",92.1%
same,viability at 12.5 µg/mL,"[8]; HepG-2, 12.5 ug/ml",6.74%
same,cytotoxicity at 12.5 µg/mL,"[8]; HepG-2, 12.5 ug/ml, read-out: Toxicity %",93.3%
same,viability at 25 µg/mL,"[8]; HepG-2, 25 ug/ml",5.9%
same,cytotoxicity at 25 µg/mL,"[8]; HepG-2, 25 ug/ml, read-out: Toxicity %",94.1%
same,IC50,"[8]; MTT, HepG-2, read-out: Cytotoxicity against cancer cells IC50 HepG-2",187.1 ± 1.8 nM
same,viability at 0.195 µmol,"[9]; K-562, 0.195 umol",46.6%
same,cytotoxicity at 0.195 µmol,"[9]; K-562, 0.195 umol, read-out: Toxicity %",53.4%
same,viability at 0.391 µmol,"[9]; K-562, 0.391 umol",29.3%
same,cytotoxicity at 0.391 µmol,"[9]; K-562, 0.391 umol, read-out: Toxicity %",70.7%
same,viability at 0.781 µmol,"[9]; K-562, 0.781 umol",22%
same,cytotoxicity at 0.781 µmol,"[9]; K-562, 0.781 umol, read-out: Toxicity %",78%
same,viability at 1.563 µmol,"[9]; K-562, 1.563 umol",12.7%
same,cytotoxicity at 1.563 µmol,"[9]; K-562, 1.563 umol, read-out: Toxicity %",87.3%
same,viability at 3.125 µmol,"[9]; K-562, 3.125 umol",8.29%
same,cytotoxicity at 3.125 µmol,"[9]; K-562, 3.125 umol, read-out: Toxicity %",91.7%
same,viability at 6.25 µmol,"[9]; K-562, 6.25 umol",7.18%
same,cytotoxicity at 6.25 µmol,"[9]; K-562, 6.25 umol, read-out: Toxicity %",92.8%
same,viability at 12.5 µmol,"[9]; K-562, 12.5 umol",6.03%
same,cytotoxicity at 12.5 µmol,"[9]; K-562, 12.5 umol, read-out: Toxicity %",94%
same,viability at 25 µmol,"[9]; K-562, 25 umol",5.54%
same,cytotoxicity at 25 µmol,"[9]; K-562, 25 umol, read-out: Toxicity %",94.5%
same,IC50,"[9]; MTT, K-562, read-out: Cytotoxicity against cancer cells IC50 K-562",188.4 ± 1.7 nM
same,% Sub-G1,"[10]; HepG-2, cytotoxic concentration, 24 h, control 68.12",96.3% and 96.13%
same,% S,"[10]; HepG-2, control 2.23",0.52%
same,% G2/M,"[10]; HepG-2, control 6.52",0.16%
same,% G1,"[10]; HepG-2, control 23.14",3.19%
same,Caspase-3 ± SE,[11],1.52 ± 0.017 ng/mL
same,Caspase-3 ± SE,[11]; listed as R2,1.52 ng/mL
same,"caspase-3 expression level, fold increase","[11]; HepG-2, vs control cells",3.30 fold
same,Activity %,[12]; HepG2,16.790%
same,Inhibition %,[12]; HepG2,83.210%
same,Activity %,[12]; K-562,33.902%
same,Inhibition %,[12]; K-562,66.098%
same,Activity %,[12]; MCF7,20.242%
same,Inhibition %,[12]; MCF7,79.758%
same,fold reduction in Bcl-2 expression level,"[13]; HepG-2, vs control",3.75 fold
same,Gene expression (fold change) Bcl-2,"[13]; HepG-2, control 3.4983",0.93 fold change and 0.9352 ± 0.09 fold change
